This note sets out measurements from article PMC5537589, “A peptide-based viral inactivator inhibits Zika virus infection in pregnant mice and fetuses” (Nature Communications, 2017).

Where no end group is shown, it is not given here.

By AUC(0-inf) is commonly meant the area under the concentration-time curve extrapolated to infinity. Low values mean less exposure, high ones more exposure. Broadly, the AUC(0-t) is exposure summed from dosing to a finite time, without extrapolation to infinity. High values mean more exposure, low ones less exposure. As a reminder, the Tmax is the time at which the peak concentration occurs. What is called Cmax is the maximum level reached in the sampled fluid or tissue. As a reminder, the half-life is the time needed for the level to fall by half in the phase considered. Low readings indicate rapid decline, high ones slow decline. The term IC50 denotes the point on the concentration scale where inhibition reaches its midpoint.

The conditions of data set [1]: rat, in vivo, iv, 10 mg/kg.
The nature of data set [2]: In vivo fluorescence imaging of distribution in pregnant ICR mice and fetuses.
For the next data set, the system named is Vero cells. To be noted: concentration as high as 50 μM, 24 h, 37 °C, CCK8.
For data set [3] the following is noted: SD rats, n=3, serum.
The next data set is described as follows: in vivo. To be noted: SD, rat, iv, 10 mg kg-1.
Data set [4] is described as follows: Safety of Z2 for pregnant ICR mice and fetuses. The class given is in vivo.
Another data set has as its system BHK21 cells. To be noted: concentration as high as 50 μM, 24 h, 37 °C, CCK8.
A further data set relates to mouse red blood cells. To be noted: concentration as high as 100 μM; 2% mouse RBC, 1 h, 37 °C; A560.
The conditions of data set [5]: 100 μg Z2-Cy5 i.v.; male ICR mice.
The subject of a further data set is Huh7 cells. Conditions: concentration as high as 50 μM, 24 h, 37 °C, CCK8.
Data set [6] relates to ZIKV-infected BHK21 cells. The class given is binding, Zika virus. Conditions: peer review file. As to the method:
Supplementary Figure 4: Binding of Z2-Cy5 to ZIKV-infected BHK21 cells. (a) Immunofluorescence staining assay.
Scale bar = 100 μm. (b) Flow cytometry assay. After the incubation of ZIKV or mock infected BHK21 cells with Z2-Cy5, the cells were washed five times and processed by a BD Accuri C6 Flow Cytometer.
BHK21 cells. As shown in Supplementary Figure 4, E protein (green, stained by anti-E mAb 4G2) and Z2-Cy5 (red) overlapped and colocated together (Supplementary Figure 4A). In the flow cytometry assay (Supplementary Figure 4B), Z2-Cy5 bound with 63.5% […]
ZIKV-infected BHK21 cells.
Supplementary Figure 4: Binding of Z2-Cy5 to ZIKV-infected BHK21 cells. (A) […]
Scale bar = 100 μm. (B) Flow cytometry assay. After the incubation of ZIKV- or mock- […]
The result was added to the revised manuscript: “Similar results were […]
obtained from ZIKV-infected BHK21cells (Supplementary Figure 4).”
The related methods were added in the revised manuscript:
“To test the binding of Z2 to ZIKV- infected BHK21 cells, BHK21 cells seeded in cover slips were ZIKV or mock infected, fixed with 4 % PFA, perforated by 0.2% Triton X-100 and blocked with 3% BSA. The cells were then incubated with anti-E mAb 4G2.
After 5 washes, the cells were incubated with Alexa Fluor 488-labeled donkey anti-mouse antibody and Z2-Cy5 at RT for 1 h. […]

A further data set relates to ZIKV virions. The experiment in a line: Sucrose density gradient assay. To be noted: 100 μM peptide in 1% DMSO or 1% Triton X-100, 37 °C 2 h.
A further data set concerns DENV-2. To be noted: 12 h.
The next data set has as its system YFV 17D. To be noted: read-out: IC50, inhibition of YFV 17D infection; BHK21 cells.
Another data set relates to ZIKV. The data set can be described thus: Plaque reduction assay in BHK21 cells. The data set is classed as cell-based, Zika virus. To be noted: n=3. Here is the method:
Supplementary Figure 2: Plaque reduction assay to determine ZIKV infection in BHK21 cells. (a) Plaque reduction assay for Z2. ZIKV was incubated with Z2 or Z2-scr in diﬀerent concentrations for 1.5 h. Then the mixture was added to BHK21 cells seeded in 6-well plates. After 1.5 h, the viral inoculum was removed and 2.5 ml DMEM with 2% FBS and 1% low melting-point agarose overlaid the cells. Four to five days later, the cells were fixed with 4% PFA and stained with 1% crystal violet overnight. (b) Plaque reduction curves. Plaques were counted and percentage of plaque reduction was […]

The mark [7] stands for this setting: 10-120 mg kg−1 i.v., before and 4 h, 1, 3, 5 days after third injection, P>0.05.

Consider “MAVLGDTAWDFGSVGGALNSLGKGIHQIFGAAF [Z2] [listing 1 of 2 here]”, for which the AUC(0-inf) in [1] is 557 ng·h/mL. Further, the AUC(0-t) in data set [1] is 548 ng·h/mL. Further, the Tmax in [1] came out at 15 min. The “penetration of the placental barrier” value in data set [2] (injected intravenously or intraperitoneally, pregnant ICR mice) was “can penetrate through the placental barrier”. For the same substance, the cytotoxic effect entry with Vero cells, with BHK21 cells and in the data set on Huh7 cells was “no cytotoxic effect” in each case. Further, the “Kel, elimination constant” value in [3] (10 mg kg-1 i.v. tail vein, LC-MS/MS, noncompartmental) turned out to be 0.250 h⁻¹. In data set [3] (10 mg kg-1 i.v., concentration data dose-normalized), this substance yielded a Cmax of 754.6 ng/mL. This substance also gave a half-life in “in vivo” of 166 min. Besides, the “average litter size of the offspring” value in data set [4] (10 mg kg−1 i.v. daily for 3 days, n=5, PBS 10.4±1.5) was 10.2±1.6; in data set [4] (20 mg kg−1 i.v. daily for 3 days, n=6), 10.5±2.0; in [4] (40 mg kg−1 i.v. daily for 3 days, n=5), 10.4±2.1; in data set [4] (80 mg kg−1 i.v. daily for 3 days, n=5) it was 10.6±1.1; in data set [4] (120 mg kg−1 i.v. daily for 3 days, n=5) it was 10.8±2.6. The “safe dose relative to dose protecting against ZIKV in vivo” value in data set [4] (120 mg kg−1 versus 10 mg kg−1) was determined as 11 fold. In addition, the “serum ALT versus PBS group” value in [4] (setting [7]) was “no significant difference”. For the same substance, the “serum creatinine versus PBS group” value in data set [4] (setting [7]) was “no significant difference”. Further, in data set [4] (10-120 mg kg−1 i.v., versus PBS), the “histopathology (H&E) of livers, kidneys, brains, spleens of mothers and pups” value was “no pathological abnormality”. The “body weight changes of mothers and pups” value in data set [4] (i.v. 10, 20, 40, 80, 120 mg kg−1 daily for 3 days versus PBS) is recorded as “almost the same among the six groups”. In addition, the “cytotoxic effect on red blood cells (hemoglobin release)” value in the data set on mouse red blood cells is “no cytotoxic effect”. The “distribution to genital organs (testis, seminal vesicle, epididymis)” value in data set [5] is reported as “could distribute to the genital organs”.
Take “Z2-Cy5: Z2 labeled with Cy5 (MAVLGDTAWDFGSVGGALNSLGKGIHQIFGAAF; also: Cy5 label, site not given here)”: in data set [2] (100 μg i.v., 1 h, P=0.0148), the “average radiant efficiency in uteruses versus PBS” value is “significantly higher”. Besides, the “average radiant efficiency in liver versus PBS” value in data set [2] (100 μg i.v., 1 h, P=0.0275) is “significantly higher”. In addition, the “average radiant efficiency in bladder versus PBS” value in data set [2] (100 μg i.v., 1 h, P=0.0426) is on record as “significantly higher”. In addition, in data set [2] (100 μg i.v., 1 h, n=9 fetuses, P<0.0001), the “average radiant efficiency in fetuses versus PBS” value is recorded as “significantly higher”. Besides, in data set [6], the “ZIKV-infected BHK21 cells bound by Z2-Cy5 (flow cytometry)” value turned out to be 63.5%.
Regarding Triton X-100, the “fraction with peak of viral genomic RNA” value in the data set on ZIKV virions (RT-qPCR) stood at 1 fraction No. Further, the “fraction with peak of E protein” value in the data set on ZIKV virions (western blot) amounted to 7 fraction No.
“MAVLGDTAWDFGSVGGALNSLGKGIHQIFGAAF [Z2] [listing 2 of 2 here]”: the concentration for half-maximal inhibition (IC50) is approximately 4 µM with DENV-2, approximately 5 µM with YFV 17D and 2610 ± 460 nM in the data set on ZIKV.
